Two compounds from the NIST ThermoML archive (doi:10.1021/je049571n) can be followed below.

± gives the expanded uncertainty stated by the source.

Series [1] in a line: refractive index (Na D-line) (dimensionless). The settings on record: 101.33 kPa, Liquid, Standard Abbe refractometry.
For series [2] the following is noted: Liquid; for mass density: 101.33 kPa.

For the compound `CC(=O)O` [acetic acid], the refractive index in series [1] (293.2 K) was determined as 1.3719 ± 0.0012. Also, in series [2] (298.2 K), the mass density came out at 1047.22 ± 0.28 kg/m3. Further, in series [2], the Normal boiling temperature came out at 118.1 ± 0.2 °C.
In the case of `COC(=O)CCCC(=O)OC` [dimethyl pentanedioate], the refractive index in series [1] (298.2 K) is given as 1.4242 ± 0.0012. The mass density in series [2] (293.2 K) is 1087.74 ± 0.65 kg/m3. For the same compound, in series [2], the Normal boiling temperature came to 214.1 ± 0.2 °C.
